In PMC2576352, “The V1-V3 region of a brain-derived HIV-1 envelope glycoprotein determines macrophage tropism, low CD4 dependence, increased fusogenicity and altered sensitivity to entry inhibitors” (Retrovirology, 2008):
Peptide text beside a SMILES is read from it.

What was measured:
[1] = tested on: SB chimeric Env (spleen gp120-brain gp41) pseudotype; format: cell-based, HIV-1; conditions: HOS-CD4-CCR5 cells, inhibitor + virus 5–6 h at 37°C, luciferase at 2–3 days, non-linear regression, 95% confidence limits in parentheses
Experimental: (§1) To produce Env-pseudotyped, luciferase-reporter viruses, 293T cells were co-transfected using calcium phosphate precipitation (ProFection Mammalian Transfection System, Promega, Madison, WI) with each Env expression vector and with the Env-deficient, pNL4-3-luc^+env^- provirus, developed by N. Landau by introducing a frameshift mutation in the env gene of pNL4-3-luc^+ [87]. Culture supernatants containing the pseudotyped particles were collected 48–72 hours after transfection, clarified by centrifugation, aliquoted and stored at -80°C until use. Pseudotype particles lacking envelope glycoproteins, which are generated by co-transfecting the luciferase HIV-1 pro-viral backbone with an empty expression vector, are used as negative control for all pseudotype infections. Pseudotype stocks were quantitated using a p24^gag antigen capture ELISA (SAIC-National Cancer Institute) and normalized amounts of stocks were used to infect target cells for 5–6 hours at 37°C. At 2–3 days post-infection, the cells were washed with PBS and lysed, and the amount of entry mediated by each Env was measured by detecting luciferase activity (Luciferase Assay System, Promega) in a microplate luminometer (GloMax, Promega), following manufacturer's instructions. Results are obtained as relative light units (RLU) per second. At least three independent experiments were performed for each analysis described below, with 2–8 replicates within each experiment.
(§2) To test for sensitivity to fusion inhibitors, BMS-378806 and HNG-105, the medium from HOS-CD4-CCR5 cells plated in 96-well plates 24 hours before infection, was removed and replaced by fresh medium containing 2× the final concentration of the corresponding inhibitor, and immediately the same volume of viral stocks was added. After 5–6 hours at 37°C, inocula and inhibitors were removed and the cells were incubated for 2–3 days before evaluating the amount of infection.
(§3) Inhibition curves obtained by plotting the relative infection (expressed as a percent of untreated) versus the concentration of the inhibitor were analyzed by non-linear regression with a sigmoidal dose-response model (variable slopes) using GraphPad Prism software, version 4.02 (GraphPad Software, San Diego, CA); this analysis uses a four parameter logistic equation, Y = Bottom + (Top-Bottom)/( 1+10^((log10IC50−X)⋅Slope) ) where Y is the response, Bottom is 0 and Top is 100, X is the logarithm of the concentration, and Slope is the slope of the curve. 50% inhibitory concentrations (IC50) and 95% confidence intervals were estimated from the non-linear regression analysis. Fusogenicity data were analyzed by non-linear regression with a one-phase exponential model (using GraphPad Prism) that uses the equation Y=Ymax(1-e^(-kX)), where Ymax is the maximum response and k is the observed rate. CD4 dependence data were analyzed with SPSS, version 16, using the non-parametric Mann-Whitney test.

DS17 Env pseudotype = format: cell-based, HIV-1; conditions: HOS-CD4-CCR5 cells, inhibitor + virus 5–6 h at 37°C, luciferase at 2–3 days, non-linear regression, 95% confidence limits in parentheses
Experimental: as §1, §2, §3

[2] = tested on: BS chimeric Env (brain gp120-spleen gp41) pseudotype; format: cell-based, HIV-1; conditions: HOS-CD4-CCR5 cells, inhibitor + virus 5–6 h at 37°C, luciferase at 2–3 days, non-linear regression, 95% confidence limits in parentheses
Experimental: as §1, §2, §3

[3] = tested on: Bv1v3 chimeric Env pseudotype; format: cell-based, HIV-1; conditions: HOS-CD4-CCR5 cells, inhibitor + virus 5–6 h at 37°C, luciferase at 2–3 days, non-linear regression, 95% confidence limits in parentheses
Experimental: as §1, §2, §3

[4] = tested on: DS17(N283T) mutant Env pseudotype; format: cell-based, HIV-1; conditions: HOS-CD4-CCR5 cells, inhibitor + virus 5–6 h at 37°C, luciferase at 2–3 days, non-linear regression, 95% confidence limits in parentheses
Experimental: as §1, §2, §3

BaL Env pseudotype = format: cell-based, HIV-1; conditions: HOS-CD4-CCR5 cells, inhibitor + virus 5–6 h at 37°C, luciferase at 2–3 days, non-linear regression, 95% confidence limits in parentheses
Experimental: as §1, §2, §3

[5] = tested on: Bv1v2 chimeric Env pseudotype; format: cell-based, HIV-1; conditions: HOS-CD4-CCR5 cells, inhibitor + virus 5–6 h at 37°C, luciferase at 2–3 days, non-linear regression, 95% confidence limits in parentheses
Experimental: as §1, §2, §3

[6] = tested on: Spl (spleen-derived) Env pseudotype; format: cell-based, HIV-1; conditions: HOS-CD4-CCR5 cells, inhibitor + virus 5–6 h at 37°C, luciferase at 2–3 days, non-linear regression, 95% confidence limits in parentheses
Experimental: as §1, §2, §3

[7] = tested on: Br (brain-derived) Env pseudotype; format: cell-based, HIV-1; conditions: HOS-CD4-CCR5 cells, inhibitor + virus 5–6 h at 37°C, luciferase at 2–3 days, non-linear regression, 95% confidence limits in parentheses
Experimental: as §1, §2, §3

[8] = tested on: Br(N283T) mutant Env pseudotype; format: cell-based, HIV-1; conditions: HOS-CD4-CCR5 cells, inhibitor + virus 5–6 h at 37°C, luciferase at 2–3 days, non-linear regression, 95% confidence limits in parentheses
Experimental: as §1, §2, §3

[9] = tested on: brain-derived Env versus spleen-derived Env; conditions: cited from earlier work
Text: We and others have investigated whether viruses or Env with these particular phenotypes are present among primary isolates in the brain/CNS of HIV-1-infected individuals. In this sense, Peters et al. have reported that the macrophage tropism of brain-derived Env seems to correlate with reduced sensitivity to inhibition by an anti-CD4 mAb but not by CCR5 antagonists or gp41-targeting antibodies or fusion inhibitor peptides. […] We hypothesized that the brain gp120 would contain the determinants for low CD4 dependence and higher avidity for CD4, while gp41 could likely play a role in the increased fusogenicity and reduced sensitivity to fusion inhibitors. In the present study, we have used chimeric and ...

[10] = tested on: Spl(T283N) mutant Env pseudotype; experiment: Inhibition of pseudotype infection by entry/fusion inhibitors, Spl(T283N) Env; format: cell-based, HIV-1; conditions: HOS-CD4-CCR5 cells, inhibitor + virus 5–6 h at 37°C, luciferase at 2–3 days, non-linear regression, 95% confidence limits in parentheses
Experimental: as §1, with “At least three independent experiments were performed for each analysis described below, with 2–8 replicates within each experiment.” left out

HxB Env pseudotype = experiment: Inhibition of pseudotype infection by entry/fusion inhibitors, HxB Env; format: cell-based, HIV-1; conditions: inhibitor + virus 5–6 h at 37°C, luciferase at 2–3 days, non-linear regression, 95% confidence limits in parentheses
Experimental: as §1, with “At least three independent experiments were performed for each analysis described below, with 2–8 replicates within each experiment.” left out

[11] = tested on: pseudotypes containing wild-type, chimeric and mutant Env; experiment: Inhibition of pseudotype infection by entry/fusion inhibitors, Env panel; format: cell-based, HIV-1
Experimental: as §1, with “At least three independent experiments were performed for each analysis described below, with 2–8 replicates within each experiment.” left out
as §3, with “50% inhibitory concentrations (IC50) and 95% confidence intervals were estimated from the non-linear regression analysis.” left out, “CD4 dependence data were analyzed with SPSS, version 16, using the non-parametric Mann-Whitney test.” left out

macrophage-tropic Env = conditions: Peters et al.; cited from earlier work
Text: Therefore, low CD4 dependence seems to correlate not only with fusogenicity and with the sensitivity to fusion and other entry inhibitors, but also with the macrophage tropism of Env. This is in agreement with recent work by Thomas et al. reporting that Env conferring macrophage tropism display low CD4 dependence and higher efficiency of fusion.

[12] = tested on: Sv1v2 chimeric Env pseudotype; experiment: Inhibition of pseudotype infection by entry/fusion inhibitors, Sv1v2 Env; format: cell-based, HIV-1; conditions: HOS-CD4-CCR5 cells, inhibitor + virus 5–6 h at 37°C, luciferase at 2–3 days, non-linear regression, 95% confidence limits in parentheses
Experimental: as §1, with “At least three independent experiments were performed for each analysis described below, with 2–8 replicates within each experiment.” left out

[13] = tested on: Sv1v3 chimeric Env pseudotype; experiment: Inhibition of pseudotype infection by entry/fusion inhibitors, Sv1v3 Env; format: cell-based, HIV-1; conditions: HOS-CD4-CCR5 cells, inhibitor + virus 5–6 h at 37°C, luciferase at 2–3 days, non-linear regression, 95% confidence limits in parentheses
Experimental: as §1, with “At least three independent experiments were performed for each analysis described below, with 2–8 replicates within each experiment.” left out

| Structure (SMILES) | IC50 [1] [nM] | IC50 (DS17 Env pseudotype) [nM] | IC50 [2] [nM] | IC50 [3] [nM] | IC50 [4] [nM] | IC50 (BaL Env pseudotype) [nM] | IC50 [5] [nM] | IC50 [6] [nM] | IC50 [7] [nM] | IC50 [8] [nM] | sensitivity of brain-derived Env to CCR5 inhibitor [9] | IC50 [10] [nM] | IC50 (HxB Env pseudotype) [nM] | sensitivity of pseudotypes to inhibitor ([11]; BR, BR(N283T), BS and Bv1v3 Env vs SPL, SPL(T283N), SB, Sv1v3 or Sv1v2) | sensitivity of pseudotypes to inhibitor ([11]; DS17 and DS17(N283T) Env vs BR and Env with related phenotype) | relation of inhibitor sensitivity to macrophage tropism (macrophage-tropic Env) | IC50 [12] [nM] | IC50 [13] [nM] |
| --- | --- | --- | --- | --- | --- | --- | --- | --- | --- | --- | --- | --- | --- | --- | --- | --- | --- | --- |
| CC[C@H](C)[C@H](NC(=O)[C@H](CCC(N)=O)NC(=O)[C@H](C)NC(=O)[C@H](CCC(N)=O)NC(=O)[C@H](CCC(=O)O)NC(=O)[C@H](CC(C)C)NC(=O)[C@H](CC(C)C)NC(=O)[C@H](C)NC(=O)[C@@H](NC(=O)[C@@H](NC(=O)[C@H](CCCCN)NC(=O)[C@H](CCC(N)=O)NC(=O)[C@H](CCC(=O)O)NC(=O)[C@H](Cc1c[nH]c2ccccc12)NC(=O)[C@H](CCC(=O)O)NC(=O)[C@H](CCC(N)=O)NC(=O)[C@@H](N)Cc1c[nH]c2ccccc12)[C@@H](C)CC)[C@@H](C)O)C(=O)N[C@@H](CCC(N)=O)C(=O)N[C@@H](CCC(N)=O)C(=O)N[C@@H](CCC(=O)O)C(=O)N[C@@H](CCSC)C(=O)N[C@@H](CC(N)=O)C(=O)N[C@@H](CCC(=O)O)C(=O)N[C@@H](CCC(N)=O)C(=O)N[C@@H](CCC(=O)O)C(=O)N[C@@H](CC(C)C)C(=O)N[C@@H](CCC(N)=O)C(=O)N[C@@H](CCCCN)C(=O)N[C@@H](CC(C)C)C(=O)N[C@@H](CC(=O)O)C(=O)N[C@H](C(=O)N[C@@H](Cc1c[nH]c2ccccc12)C(=O)N[C@@H](C)C(=O)N[C@@H](CO)C(=O)N[C@@H](CC(C)C)C(=O)N[C@@H](Cc1c[nH]c2ccccc12)C(=O)N[C@@H](CCC(=O)O)C(=O)N[C@@H](Cc1c[nH]c2ccccc12)C(=O)N[C@@H](Cc1ccccc1)C(=O)O)[C@@H](C)O [T-1249-BR] (H-WQEWEQKITALLEQAQIQQEMNEQELQKLDTWASLWEWF-OH) | 41 | 92 | 155 | 245 | 104 | 124 | 155 | 27 | 195 | 221 | – | – | – | – | – | – | – | – |
| Cc1ccc(-c2ccc3c(c2)C=C(C(=O)Nc2ccc(C[N+](C)(C)C4CCOCC4)cc2)CCC3)cc1.[Cl-] [TAK-779] | – | – | – | – | – | – | – | – | – | – | absence of differences in sensitivity | – | – | – | – | – | – | – |
| COc1ccnc2[nH]cc(C(=O)C(=O)N3CCN(C(=O)c4ccccc4)C[C@H]3C)c12 [BMS-378806] | 2 | 41 | 20 | 8.2 | 32 | 29 | 4.8 | 1.8 | 15 | 13 | – | 0.9 | 3.9 | significantly less sensitive to inhibition by BMS-378806 | reduced sensitivity to BMS-378806 as compared to the BR | correlated with increasing macrophage tropism | 1.2 | 0.9 |
